Data taken from publication PMC5534107, “Sensitization of ASIC3 by proteinase-activated receptor 2 signaling contributes to acidosis-induced nociception” (Journal of Neuroinflammation, 2017).

What was measured:
[1] = system: ASIC3 currents in CHO cells co-expressing ASIC3 and PAR2; test: Whole-cell patch clamp of proton-gated currents (I pH 6.6) in CHO cells co-expressing ASIC3 and PAR2; format: cell-based, Chinese hamster
Method: (§1) ASIC3, ASIC1a, ASIC1b, ASIC2b, and PAR2 complementary DNAs (cDNAs) were used for heterologous expression in CHO cells as described previously (Wang et al., 2013). In brief, CHO cells were cultured at 37 °C in a humidified atmosphere of 5% CO2 and […] and passaged twice a week. Transient transfection of CHO cells was performed using HilyMax liposome transfection reagent (Dojindo Laboratories). CHO cells were maintained in F-12 Nutrient Mixture (added 1.176 g of NaHCO3/L medium) supplemented with 10% fetal bovine serum and 1% gluta-MAXTM-1 (100×; Invitrogen). When ASIC3 and PAR2 cDNAs were co-transfected, the ratio was kept at 1:1. All plasmids used contained, in addition to the desired ASIC3 cDNA, the coding sequence for enhanced green fluorescent protein to aid identification of transfected cells. Electrophysiological measurements were performed 24–48 h after transfection.
(§2) Whole-cell patch clamp and voltage clamp recordings were carried out at room temperature (22–25 °C) using a MultiClamp-700B amplifier and Digidata-1440A A/D converter (Axon Instruments, CA, USA). Recording pipettes were pulled using a Sutter P-97 puller (Sutter Instruments, CA, USA). The micropipettes were filled with internal solution containing (mM) KCl 140, MgCl2 2.5, HEPES 10, EGTA 11, and ATP 5; its pH was adjusted to 7.2 with KOH, and osmolarity was adjusted to 310 mOsm/L with sucrose. Cells were bathed in an external solution containing (mM) NaCl 150, KCl 5, CaCl2 2.5, MgCl2 2, HEPES 10, D-glucose 10; its osmolarity was adjusted to 330 mOsm/L with sucrose and its pH to 7.4. The resistance of the recording pipette was in the range of 3–6 MΩ. A small patch of membrane underneath the tip of the pipette was aspirated to form a giga seal, and then, a negative pressure was applied to rupture it, thus establishing a whole-cell configuration. The series resistance was compensated for by 70–80%. The adjustment of capacitance compensation was also done before recording the membrane currents. The membrane voltage was maintained at −60 mV in all voltage clamp experiments unless otherwise specified. Current clamp recordings were obtained by switching to current clamp mode after a stable whole-cell configuration was formed in voltage clamp mode. Only cells with a stable resting membrane potential (more negative than −50 mV) were used in the study. Signals were sampled at 10 to 50 kHz and filtered at 2 to 10 kHz, and the data were stored in compatible PC computer for off-online analysis using the pCLAMP 10 acquisition software (Axon Instruments, CA, USA).
Drugs purchased from Sigma and used in the experiments include hydrochloric acid, 2-furoyl-LIGRLO-NH2 (a PAR2-activating peptide (PAR2-AP)), trypsin, FSLLRY-NH2, APETx2, and capsazepine. Different pH values were configured with hydrochloric acid and external solution. All drugs were dissolved daily in the external solution just before use and held in a linear array of fused silica tubes (o.d./i.d. = 500 μm/200 μm) connected to a series of independent reservoirs. The application pipette tips were positioned ∼30 μm away from the recorded neurons. The application of each drug was driven by gravity and controlled by the corresponding valve, and rapid solution exchange could be achieved within about 100 ms by shifting the tubes horizontally with a PC-controlled micromanipulator. Cells were constantly bathed in normal external solution flowing from one tube connected to a larger reservoir between drug applications. In some experiments where GDP-β-S (Sigma), U-73122(Sigma), and GF109203X (RBI) were applied for intracellular dialysis through recording patch pipettes, they were dissolved in the internal solution before use. To ensure that the cell interior was perfused with the dialysis drug, there was at least a 30-min interval between the establishment of whole-cell access and the current measurement. […]

rat DRG neurons = test: Current clamp of acidosis-evoked action potentials (spikes) in rat DRG neurons; format: cell-based; details: APETx2 2 μM; pH 6.6 for 5 s; capsazepine 10 μM
From the text: The experimental protocol was approved by the animal research ethics committee of Hubei University of Science and Technology (No. 2016–67). All procedures conformed to international guidelines on the ethical use of animals, and every effort was made to minimize the number of animals used and their sufferings. Five- to 6-week-old Sprague–Dawley male rats were anesthetized with 7% chloral hydrate and then decapitated. The DRGs were taken out and transferred immediately into Dulbecco’s modified Eagle’s medium (DMEM, Sigma) at pH 7.4. After the removal of the surrounding connective tissues, the DRGs were minced with fine spring scissors and the ganglion fragments were placed in a flask containing 5 ml of DMEM in which trypsin (type II-S, Sigma) 0.5 mg/ml, collagenase (type I-A, Sigma) 1.0 mg/ml, and DNase (type IV, Sigma) 0.1 mg/ml had been dissolved and incubated at 35 °C in a shaking water bath for 25–30 min. Soybean trypsin inhibitor (type II-S, Sigma) 1.25 mg/ml was then added to stop trypsin digestion. The incubating solution was then replaced by external solution. […]
(§3) Drugs purchased from Sigma and used in the experiments include hydrochloric acid, 2-furoyl-LIGRLO-NH2 (a PAR2-activating peptide (PAR2-AP)), trypsin, FSLLRY-NH2, APETx2, and capsazepine. […] The application pipette tips were positioned ∼30 μm away from the recorded neurons. […]

rats = test: Nociceptive behavior (flinches) induced by intraplantar acetic acid in rats; format: in vivo, rat; details: n = 10
Method: Rats were placed in a 30 × 30 × 30 cm Plexiglas chamber and allowed to habituate for at least 30 min before nociceptive behavior experiments. A blind experiment was carried out. Separate groups of rats were coded and pretreated with 20 μl capsazepine (100 μM) together with vehicle and different dosages of PAR2-AP, FSLLRY-NH2, or APETx2 in the ipsilateral hind paw before injection of acetic acid. […] And nociceptive behavior (that is, number of flinches) was counted over a 5-min period starting immediately after the injection.
We finally ascertain whether PAR2-AP facilitates pain-related behaviors through interacting with ASIC3 in vivo. Acetic acid (0.6%) was injected into the right hind paws of rats and measured the number of flinches that the animals spent licking and/or lifting the injected paw. Intraplantar injection of acetic acid elicits an intense flinch/shaking response which mainly occurred during 0–5 min after injection of acetic acid. […] However, the low dose (1 μg) of PAR2-AP had no effect on the acidosis-induced nocifensive behaviors (Bonferroni’s post hoc test, P > 0.1, n = 10). In addition, the exacerbating effect of 10 μg PAR2-AP on acidosis-induced nocifensive behaviors was blocked by co-administration of 20 μg FSLLRY-NH2, a selective PAR2 antagonist (Bonferroni’s post hoc test, P < 0.01, compared with 10 μg PAR2-AP alone, n = 10; Fig. 6a).

[2] = system: ASIC3-like currents in rat DRG neurons; test: Voltage clamp of proton-evoked ASIC3-like currents in acutely isolated rat DRG neurons; format: cell-based
From the text: The experimental protocol was approved by the animal research ethics committee of Hubei University of Science and Technology (No. 2016–67). All procedures conformed to international guidelines on the ethical use of animals, and every effort was made to minimize the number of animals used and their sufferings. Five- to 6-week-old Sprague–Dawley male rats were anesthetized with 7% chloral hydrate and then decapitated. The DRGs were taken out and transferred immediately into Dulbecco’s modified Eagle’s medium (DMEM, Sigma) at pH 7.4. After the removal of the surrounding connective tissues, the DRGs were minced with fine spring scissors and the ganglion fragments were placed in a flask containing 5 ml of DMEM in which trypsin (type II-S, Sigma) 0.5 mg/ml, collagenase (type I-A, Sigma) 1.0 mg/ml, and DNase (type IV, Sigma) 0.1 mg/ml had been dissolved and incubated at 35 °C in a shaking water bath for 25–30 min. Soybean trypsin inhibitor (type II-S, Sigma) 1.25 mg/ml was then added to stop trypsin digestion. The incubating solution was then replaced by external solution. Dissociated neurons were placed into a 35-mm Petri dish and kept for at least 1 h in normal external solution before the start of electrophysiological experiments. After plating of the DRG neurons, the neurons were used for experiments within 24 h. The neurons selected for electrophysiological experiment were 15–35 μm in diameter.
as §2, with “The membrane voltage was maintained at −60 mV in all voltage clamp experiments unless otherwise specified. Current clamp recordings were obtained by switching to current clamp mode after a stable whole-cell configuration was formed in voltage clamp mode. Only cells with a stable resting membrane potential (more negative than −50 mV) were used in the study. Signals were sampled at 10 to 50 kHz and filtered at 2 to 10 kHz, and the data were stored in compatible PC computer for off-online analysis using the pCLAMP 10 acquisition software (Axon Instruments, CA, USA).” left out
as §3

[3] = system: ASIC3 currents in CHO cells expressing alone ASIC3, but not expressing PAR2; test: Whole-cell patch clamp, CHO cells expressing ASIC3 alone (no PAR2); format: cell-based, Chinese hamster; details: 10^−5 M; P > 0.1; n = 10
Method: as §1
Whole-cell patch clamp and voltage clamp recordings were carried out at room temperature (22–25 °C) using a MultiClamp-700B amplifier and Digidata-1440A A/D converter (Axon Instruments, CA, USA). […]
as §3

Which “PAR2-AP-induced increase of I pH 6.6 with GF109203X in the pipette solution” value ([1]; GF109203X 2 μM intracellular dialysis, PAR2-AP 10^−5 M for 1 min, n = 10) does the source give for `CN(C)CCCn1cc(C2=C(c3c[nH]c4ccccc34)C(=O)NC2=O)c2ccccc21` [GF109203X] here?
The value was 3.2 ± 6.0%.

How did the “PAR2-AP-induced increase of I pH 6.6 with H-89 in the pipette solution” value ([1]; H-89 10 μM intracellular dialysis, PAR2-AP 10^−5 M for 1 min, n = 10) turn out when `O=S(=O)(NCCNC/C=C/c1ccc(Br)cc1)c1cccc2cnccc12` [H-89] was run?
Its value is 15.3 ± 5.8%.

`COc1ccc2c(c1)CC[C@@H]1[C@@H]2CC[C@]2(C)[C@@H](NCCCCCCN3C(=O)C=CC3=O)CC[C@@H]12` [U-73122] was tested. Which “PAR2-AP-induced increase of I pH 6.6 with U-73122 in the pipette solution” value ([1]; U-73122 10 μM intracellular dialysis, PAR2-AP 10^−5 M for 1 min, n = 10) did it give?
Its value is 6.9 ± 2.8%.

Which “effect on acidosis-evoked spikes” value (rat DRG neurons) does the source give for APETx2 here?
The value was “completely blocked”.

And the “effect on acetic acid-induced nociceptive response” value (rats; APETx2 20 μM, 20 μl intraplantar, P < 0.01)?
The value was “potently blocked”.

And the “effect on increased pain behavior induced by 10 μg PAR2-AP” value (rats; APETx2 20 μM, 20 μl intraplantar, P < 0.01 vs PAR2-AP)?
Its value is “potently inhibited”.

And the “effect on peak ASIC current (I pH 6.6)” value ([1]; APETx2 500 nM)?
The value was “inhibited the peak ASIC current”.

What about the “effect on sustained plateau current (I pH 6.6)” value ([1]; APETx2 500 nM) of the same molecule?
Its value is “without affecting the sustained plateau”.

And the “effect on proton-induced ASIC current (I pH 6.6) in DRG neurons” value ([2]; APETx2 2 μM, eight DRG neurons, capsazepine 10 μM)?
Its value is “completely blocked”.

Which results are given for FSLLRY-NH2?
effect on exacerbation of acidosis-induced nocifensive behaviors by 10 μg PAR2-AP (rats; FSLLRY-NH2 20 μg co-administered, P < 0.01 vs 10 μg PAR2-AP alone): blocked; change of peak amplitude of I pH 6.6 after pretreatment with FSLLRY-NH2 alone ([1]; 10^−5 M): ≤ 5%; PAR2-AP-induced increase of ASIC3 currents in cells pretreated with FSLLRY-NH2 ([1]; PAR2-AP 10^−5 M + FSLLRY-NH2 10^−5 M, n = 10, P < 0.01 vs PAR2-AP alone): 7.3 ± 7.1%; trypsin-induced increase of ASIC3 currents in cells pretreated with FSLLRY-NH2 ([1]; trypsin 10^−5 M + FSLLRY-NH2 10^−5 M, n = 10): 8.4 ± 6.2%; effect of FSLLRY-NH2 on trypsin potentiation of ASIC currents in DRG neurons ([2]; FSLLRY-NH2 10^−5 M, trypsin 10^−5 M): inhibited; increase of peak amplitude of I pH 6.6 in DRG neurons when PAR2-AP co-treated with FSLLRY-NH2 ([2]; PAR2-AP 10^−5 M + FSLLRY-NH2 10^−5 M, capsazepine 10 μM, n = 9, P < 0.01 vs PAR2-AP alone): 9.3 ± 44%

Which results are given for “trypsin: protease, possible physiological ligand of PAR2; cleaves and activates PAR2”?
effect on I pH 6.6 in ASIC3-transfected CHO cells without PAR2 [3]: Neither PAR2-AP nor trypsin had an effect; increase of peak amplitude of I pH 6.6 after pretreatment with agonist alone ([1]; 10^−5 M for 1 min, n = 10): 48.7 ± 8.3%
